Data taken from patent US4208514A, “4(3H)-Oxobenzo-2,1,3-thiadiazine-2,2-dioxides” (The Dow Chemical Company, priority 1976, dated 1980).

What was measured:
Assay type in all cases: in vivo
Velvet Leaf = test: Selective post-emergent greenhouse test, Velvet Leaf; conditions: for pest or weed control at 358.672 g/ha / pest or weed control at 706.135 g/ha: post-emergence, 336 h, 2 weeks; for pest or weed control at 358.672 g/ha: 0.32 lbs/acre; for pest or weed control at 706.135 g/ha: 0.63 lbs/acre
Text: (§1) So as to illustrate clearly the phytotoxic properties of the various active ingredients of the present invention, a group of controlled greenhouse experiments is described below.
(§2) Various species of plants, both broadleaf weeds and valuable crops, were planted in beds of good agricultural soil in a greenhouse. After the plants had emerged and grown to a height of about 2-6 inches, a portion of the plants were sprayed with an aqueous mixture, made by mixing a selected active ingredient and emulsifier or dispersant with water to provide solution containing 250 or 125 ppm active ingredient, employing sufficient amounts of the treating composition to provide low post emergent application rates of about 0.63 or 0.32 pounds per acre. Other portions of the plants were left untreated to serve as controls. In each test the active ingredient was a 3-methylethyl-1H-2,1,3-benzothiadiazin-4(3H)-one-2,2-dioxide having a substituent in the one position according to the invention.
(§3) After a period of 2 weeks the selective effect of the test ingredient on the plants was evaluated by a comparison with the control group of plants.

Soybean = test: Selective post-emergent greenhouse test, Soybean (crop injury); conditions: Glycine max, post-emergence, 336 h, 2 weeks, read-out: % Control Soybean; for plant injury at 358.672 g/ha: 0.32 lbs/acre; for plant injury at 706.135 g/ha: 0.63 lbs/acre
Text: as §1, §2, §3

Jimson Weed = test: Selective post-emergent greenhouse test, Jimson Weed; conditions: post-emergence, 336 h, 2 weeks; for pest or weed control at 358.672 g/ha: 0.32 lbs/acre; for pest or weed control at 706.135 g/ha: 0.63 lbs/acre
Text: as §1, §2, §3

Cotton = test: Selective post-emergent greenhouse test, Cotton (crop injury); conditions: for plant injury at 358.672 g/ha / plant injury at 706.135 g/ha: Gossypium hirsutum, post-emergence, 336 h, 2 weeks, crop, read-out: % Control Cotton; for plant injury at 358.672 g/ha: 0.32 lbs/acre; for plant injury at 706.135 g/ha: 0.63 lbs/acre
Text: as §1, §2, §3

CC(C)N1C(=O)c2ccccc2N(S(=O)(=O)c2ccccc2)S1(=O)=O
pest or weed control at 358.672 g/ha (Velvet Leaf): 0%
pest or weed control at 706.135 g/ha (Velvet Leaf): 30%
plant injury at 358.672 g/ha (Soybean): 0%
plant injury at 706.135 g/ha (Soybean): 0%
pest or weed control at 358.672 g/ha (Jimson Weed): 100%
pest or weed control at 706.135 g/ha (Jimson Weed): 100%
plant injury at 358.672 g/ha (Cotton; post-emergent): 0%
plant injury at 706.135 g/ha (Cotton; post-emergent): 0%

CCN(CC)C(=O)N1c2ccccc2C(=O)N(C(C)C)S1(=O)=O [CON(C2 H5)2]
pest or weed control at 358.672 g/ha (Velvet Leaf): 0%
pest or weed control at 706.135 g/ha (Velvet Leaf): 20%
plant injury at 358.672 g/ha (Soybean): 0%
plant injury at 706.135 g/ha (Soybean): 0%
pest or weed control at 358.672 g/ha (Jimson Weed): 100%
pest or weed control at 706.135 g/ha (Jimson Weed): 100%
plant injury at 358.672 g/ha (Cotton; post-emergent): 10%
plant injury at 706.135 g/ha (Cotton; post-emergent): 90%

COC(=O)CCC(=O)N1c2ccccc2C(=O)N(C(C)C)S1(=O)=O [drawing 13]
pest or weed control at 358.672 g/ha (Velvet Leaf): 70%
pest or weed control at 706.135 g/ha (Velvet Leaf): 100%
plant injury at 358.672 g/ha (Soybean): 0%
plant injury at 706.135 g/ha (Soybean): 0%
pest or weed control at 358.672 g/ha (Jimson Weed): 100%
pest or weed control at 706.135 g/ha (Jimson Weed): 100%
plant injury at 358.672 g/ha (Cotton; post-emergent): 0%
plant injury at 706.135 g/ha (Cotton; post-emergent): 60%

CC(C)N1C(=O)c2ccccc2N(C(=O)C2CCCCC2)S1(=O)=O
pest or weed control at 358.672 g/ha (Velvet Leaf): 0%
pest or weed control at 706.135 g/ha (Velvet Leaf): 100%
plant injury at 358.672 g/ha (Soybean): 0%
plant injury at 706.135 g/ha (Soybean): 0%
pest or weed control at 358.672 g/ha (Jimson Weed): 100%
pest or weed control at 706.135 g/ha (Jimson Weed): 100%
plant injury at 358.672 g/ha (Cotton; post-emergent): 0%
plant injury at 706.135 g/ha (Cotton; post-emergent): 100%

CCC(C)OC(=O)N1c2ccccc2C(=O)N(C(C)C)S1(=O)=O (stereo not shown)
pest or weed control at 358.672 g/ha (Velvet Leaf): 100%
pest or weed control at 706.135 g/ha (Velvet Leaf): 100%
plant injury at 358.672 g/ha (Soybean): 0%
plant injury at 706.135 g/ha (Soybean): 0%
pest or weed control at 358.672 g/ha (Jimson Weed): 100%
pest or weed control at 706.135 g/ha (Jimson Weed): 100%
plant injury at 358.672 g/ha (Cotton; post-emergent): 30%
plant injury at 706.135 g/ha (Cotton; post-emergent): 30%

CC(C)N1C(=O)c2ccccc2N(C(=O)OCCCl)S1(=O)=O [CO2 CH2 CH2 Cl]
pest or weed control at 358.672 g/ha (Velvet Leaf): 95%
pest or weed control at 706.135 g/ha (Velvet Leaf): 100%
plant injury at 358.672 g/ha (Soybean): 0%
plant injury at 706.135 g/ha (Soybean): 0%
pest or weed control at 358.672 g/ha (Jimson Weed): 80%
pest or weed control at 706.135 g/ha (Jimson Weed): 100%
plant injury at 358.672 g/ha (Cotton; post-emergent): 10%
plant injury at 706.135 g/ha (Cotton; post-emergent): 10%

CC(C)N1C(=O)c2ccccc2N(C(=O)c2ccccc2)S1(=O)=O
pest or weed control at 358.672 g/ha (Velvet Leaf): 0%
pest or weed control at 706.135 g/ha (Velvet Leaf): 0%
plant injury at 358.672 g/ha (Soybean): 0%
plant injury at 706.135 g/ha (Soybean): 0%
pest or weed control at 358.672 g/ha (Jimson Weed): 80%
pest or weed control at 706.135 g/ha (Jimson Weed): 80%
plant injury at 358.672 g/ha (Cotton; post-emergent): 0%
plant injury at 706.135 g/ha (Cotton; post-emergent): 0%

CC(C)N1C(=O)c2ccccc2N(S(=O)(=O)N(C)C)S1(=O)=O [SO2 N(CH3)2, 1H-2,1,3-Benzothiadiazin-4-(3H)-one; 1-Dimethylsulfamoyl-3-(1-methylethyl)-2,2-dioxide]
pest or weed control at 358.672 g/ha (Velvet Leaf): 70%
pest or weed control at 706.135 g/ha (Velvet Leaf): 50%
plant injury at 358.672 g/ha (Soybean): 0%
plant injury at 706.135 g/ha (Soybean): 0%
pest or weed control at 706.135 g/ha (Jimson Weed): 100%
plant injury at 358.672 g/ha (Cotton; post-emergent): 5%
plant injury at 706.135 g/ha (Cotton; post-emergent): 70%

CCCCCCCCCCCC(=O)N1c2ccccc2C(=O)N(C(C)C)S1(=O)=O [CO(CH2)10 CH3, 3-(1-Methylethyl)-1-(1-oxododecanyl)-1H-2,1,3-benzothiadiazin-4 (3H)-one-2,2-dioxide]
pest or weed control at 358.672 g/ha (Velvet Leaf): 60%
pest or weed control at 706.135 g/ha (Velvet Leaf): 70%
plant injury at 358.672 g/ha (Soybean): 0%
plant injury at 706.135 g/ha (Soybean): 0%
pest or weed control at 358.672 g/ha (Jimson Weed): 100%
pest or weed control at 706.135 g/ha (Jimson Weed): 100%
plant injury at 358.672 g/ha (Cotton; post-emergent): 0%
plant injury at 706.135 g/ha (Cotton; post-emergent): 20%

CC(Br)C(=O)N1c2ccccc2C(=O)N(C(C)C)S1(=O)=O (stereo not shown) [COCHBrCH3, 1H-2,1,3-Benzothiadiazin-4(3H)-one: 1-(2-Bromo-1-oxopropyl)-3-(1-methylethyl)-; 2,2-dioxide]
pest or weed control at 358.672 g/ha (Velvet Leaf): 100%
pest or weed control at 706.135 g/ha (Velvet Leaf): 100%
plant injury at 358.672 g/ha (Soybean): 0%
plant injury at 706.135 g/ha (Soybean): 0%
pest or weed control at 358.672 g/ha (Jimson Weed): 100%
pest or weed control at 706.135 g/ha (Jimson Weed): 100%
plant injury at 358.672 g/ha (Cotton; post-emergent): 0%
plant injury at 706.135 g/ha (Cotton; post-emergent): 4%

CC(C)COC(=O)N1c2ccccc2C(=O)N(C(C)C)S1(=O)=O [CO2 CH2 CH(CH3)2, 1H-2,1,3-Benzothiadiazine-1-carboxylic Acid: 3,4-Dihydro-3-(1-methylethyl)-4-oxo-, 2-Methylpropyl Ester, 2,2-Dioxide]
pest or weed control at 358.672 g/ha (Velvet Leaf): 100%
pest or weed control at 706.135 g/ha (Velvet Leaf): 100%
plant injury at 358.672 g/ha (Soybean): 10%
plant injury at 706.135 g/ha (Soybean): 10%
pest or weed control at 358.672 g/ha (Jimson Weed): 100%
pest or weed control at 706.135 g/ha (Jimson Weed): 100%
plant injury at 358.672 g/ha (Cotton; post-emergent): 0%
plant injury at 706.135 g/ha (Cotton; post-emergent): 0%

CC(C)N1C(=O)c2ccccc2N(C(=O)C(C)(C)C)S1(=O)=O [COC(CH3)3, 3-(1-Methylethyl)-1-(2,2-dimethyl-1-oxopropyl)-1H-2,1,3- -benzothiadiazin-4(3H)-one-2,2-dioxide]
pest or weed control at 358.672 g/ha (Velvet Leaf): 80%
pest or weed control at 706.135 g/ha (Velvet Leaf): 100%
plant injury at 358.672 g/ha (Soybean): 0%
plant injury at 706.135 g/ha (Soybean): 0%
pest or weed control at 358.672 g/ha (Jimson Weed): 70%
pest or weed control at 706.135 g/ha (Jimson Weed): 100%
plant injury at 358.672 g/ha (Cotton; post-emergent): 0%
plant injury at 706.135 g/ha (Cotton; post-emergent): 40%

CC(C)N1C(=O)c2ccccc2N(C(=O)CC(C)(C)C)S1(=O)=O [COCH2 C(CH3)3, 1H-2,1,3-Benzothiadiazin-4(3H)-one: 1-(3,3-dimethyl-1-oxobutyl)-3-(1-methylethyl)-; 2,2-dioxide]
pest or weed control at 358.672 g/ha (Velvet Leaf): 100%
pest or weed control at 706.135 g/ha (Velvet Leaf): 100%
plant injury at 358.672 g/ha (Soybean): 0%
plant injury at 706.135 g/ha (Soybean): 0%
pest or weed control at 358.672 g/ha (Jimson Weed): 90%
pest or weed control at 706.135 g/ha (Jimson Weed): 100%
plant injury at 358.672 g/ha (Cotton; post-emergent): 0%
plant injury at 706.135 g/ha (Cotton; post-emergent): 0%

CCOC(=O)N1c2ccccc2C(=O)N(C(C)C)S1(=O)=O [CO2 CH2 CH3]
pest or weed control at 358.672 g/ha (Velvet Leaf): 70%
pest or weed control at 706.135 g/ha (Velvet Leaf): 100%
plant injury at 358.672 g/ha (Soybean): 0%
plant injury at 706.135 g/ha (Soybean): 0%
pest or weed control at 358.672 g/ha (Jimson Weed): 100%
pest or weed control at 706.135 g/ha (Jimson Weed): 100%
plant injury at 358.672 g/ha (Cotton; post-emergent): 10%
plant injury at 706.135 g/ha (Cotton; post-emergent): 30%

CCC(=O)N1c2ccccc2C(=O)N(C(C)C)S1(=O)=O [COC2 H5, 1H-2,1,3-Benzothiadiazin-4(3H)-one: 3-(1-methylethyl)-1-(1-oxopropyl)-; 2,2-dioxide]
pest or weed control at 358.672 g/ha (Velvet Leaf): 100%
pest or weed control at 706.135 g/ha (Velvet Leaf): 100%
plant injury at 358.672 g/ha (Soybean): 0%
plant injury at 706.135 g/ha (Soybean): 0%
plant injury at 358.672 g/ha (Cotton; post-emergent): 0%
plant injury at 706.135 g/ha (Cotton; post-emergent): 100%

CC(C)N1C(=O)c2ccccc2N(C(=O)N(C)C)S1(=O)=O [CON(CH3)2, 1H-2,1,3-Benzothiadiazine-1-carboxamide: N,N-Dimethyl-3,4-dihydro-3-(1-methylethyl)-4-oxo-, 2,2-dioxide]
pest or weed control at 358.672 g/ha (Velvet Leaf): 40%
pest or weed control at 706.135 g/ha (Velvet Leaf): 95%
plant injury at 358.672 g/ha (Soybean): 0%
plant injury at 706.135 g/ha (Soybean): 0%
pest or weed control at 358.672 g/ha (Jimson Weed): 100%
pest or weed control at 706.135 g/ha (Jimson Weed): 100%
plant injury at 706.135 g/ha (Cotton; post-emergent): 40%

CC(C)N1C(=O)c2ccccc2NS1(=O)=O [3-methylethyl-1H-2,1,3-benzothiadiazin-4(3H)-one-2,2-dioixde, reference compound]
control of velvet leaf (Velvet Leaf; comparison test, about 0.32 pounds per acre): control of velvet leaf was obtained
damage to cotton at dosage rates at which velvet leaf is controlled (Cotton; comparison compound, in general): cotton suffers substantial damage
control of cotton (Cotton; comparison test, about 0.32 pounds per acre, post-emergent): 90%
